Measured values published in patent US20170304228A1, “NEW INDICATION OF CINACALCET HCL PHARMACEUTICAL COMPOSITION FOR TREATING CANCER” (LAUNX BIOMEDICAL CO., LTD., priority 2014, published 2017).
Values joined by “and” are separate entries in the source; they are usually repeats but may differ in a detail not shown here. Equal entries are not always repeated. Structures can show the parent of a compound that is named as a salt. Where two headings read alike, the source gives them in different places.

Columns and labels:
SAS = assay: Cell viability analysis (WST-1), SAS; assay type: cell-based
Experimental: (§1) The cell numbers were counted and reseed as 2×10^6 in culture plate/flask. Then, the culture medium were added to a volume of 10 ml, and the cells were cultured for 2-3 days. Then, the cells were suspended for loading into 96-well plates. The number of cells was 3000 and the volume of the culture medium was 100 μl each well.
(§2) Removing the original culture medium from 96-well plate. Then add 100 μl of commercially drug at a concentration of 10 μM per well. After 72 hours, add the diluted WST-1 reagent to the well with 100 μl/well, and the diluted WST-1 reagent was acquired from the dilution of 9:1 medium and WST-1 stock reagent. Finally, the total volume of each well was 200 μl/well. Culture the 96-well plate at 37° C. for 30 to 90 minutes. Detecting and calculate the survival rate of each cancer cells with an ELISA reader at OD450 nm. The lower viability of cancer cells represents better inhibition effect via the Cinacalcet HCl drug. Otherwise, the higher viability of cancer cells represents worse inhibition effect via the Cinacalcet HCl drug.
(§3) This inhibition test of Cinacalcet HCl on gastrointestinal tract-related cancer cells were using gastric cancer cell lines AGS and MKN-45 (Table 9), hepatic cancer cell lines HepG2 and Hep3B (Table 10), colorectal cancer cell lines HCT116-wt and LoVo (Table 11), pancreatic cancer cell line AsPC-1 and BxPC-3(Table 12), tongue cancer cell line SAS (Table 13). The inhibitory tests of Cinacalcet HCl were performed 4 times for each cell lines and then the average value of the inhibitory tests was calculated.

A375 = assay: Cell viability analysis (WST-1), A375; assay type: cell-based; settings: Homo sapiens, read-out: survival rate (viability) of cells
Experimental: as §1, §2
This inhibition test of Cinacalcet HCl on other cancer cells were using osteosarcoma cell line U2OS (Table 14), skin cancer cell lines A375 and BCC (Table 15). The inhibitory tests of Cinacalcet HCl were performed 4 times for each cell lines and then the average value of the inhibitory tests was calculated.

[1] = Animal model test of gastric cancer, body weight and health status; assay type: in vivo, mice; settings: for weight: single mice A, B, C, hydrochloride
Experimental: In this invention, the female mice were(BALB/cAnN.Cg-Foxnl™/CrlNarl) and purchased from National Laboratory Animal Center (Taiwan). The weight of the mice were 21±1 g. These mice were subcutaneously injected with gastric cancer cells (AGS) and then put these mice into different cages at random. The drug test experiment was divided into three groups, include “control group”, “low dose group (100 mg/kg/day)”, “high dose group (200 mg/kg/day)”. These mice were then injected test drug intraperitoneally once daily […]. The tumor sizes and body weight were measured twice a week. The tumor sizes were measured and calculated by formula: (L×W^2)/2. L represents the tumor longest length. W represents the tumor shortest diameter.

HepG2 = assay: Cell viability analysis (WST-1), HepG2; assay type: cell-based; settings: Homo sapiens, read-out: survival rate (viability) of cells
Experimental: as §1, §2, §3

TSGH = assay: Cell viability analysis (WST-1), TSGH; assay type: cell-based; settings: read-out: survival rate (viability) of cells
Experimental: as §1, §2
This inhibition test of Cinacalcet HCl on abdominal-related cancer cells were using bladder cancer cell line TSGH and T24 (Table 3), cervical cancer cell lines HeLa and C-33A (Table 4), renal cancer cell line 786-O (Table 5). The inhibitory tests of Cinacalcet HCl were performed 4 times for each cell lines and then the average value of the inhibitory tests was calculated.

[2] = Cell viability analysis (WST-1), normal pulmonary epithelial cell line BEAS-2B; assay type: cell-based; settings: human, BEAS-2B cells (normal pulmonary epithelial cell line)
Description: Subculture the different types of cancer cells. The cancer cells includes lung cancer, gastric cancer, hepatic cancer, colon cancer, skin cancer, cervical cancer, prostate cancer, bladder cancer, breast cancer, leukemia, pancreatic cancer, ovarian cancer, tongue cancer, osteosarcoma, and renal cancer. The normal cells used in the control group included kidney cell (HEK293) and human bronchial epithelial cell line BEAS-2B (as shown in Table 1).
as §1, §2
This inhibition test of Cinacalcet HCl on normal cells were using normal kidney cell line HEK293 (Table 16), normal pulmonary epithelial cell lines […] BEAS-2B (Table 17). The inhibitory tests of Cinacalcet HCl were performed 4 times for each cell lines and then the average value of the inhibitory tests was calculated The results were shown in Tables 16 and Tables 17.

lung cancer cells = assay: Summary of cell viability, lung cancer cells; assay type: cell-based; settings: 72 hours, read-out: Inhibitory effect
Experimental: as §1, §2
Cinacalcet HCl is having different inhibitory effect on different tumor cell type even in the same cancer. […] (FIG. 1)

BxPC-3 = assay: Cell viability analysis (WST-1), BxPC-3; assay type: cell-based; settings: Homo sapiens, read-out: survival rate (viability) of cells
Experimental: as §1, §2, §3

A549 = assay: Cell viability analysis (WST-1), A549; assay type: cell-based; settings: Homo sapiens, read-out: survival rate (viability) of cells
Experimental: as §1, §2
This inhibition test of Cinacalcet HCl on pleural-related cancer cells were using two lung cancer cell lines A549 and H1650. The inhibitory tests of Cinacalcet HCl were performed 4 times for each cell lines and then the average value of the inhibitory tests was calculated.

C[C@@H](NCCCc1cccc(C(F)(F)F)c1)c1cccc2ccccc12 [Cinacalcet HCl, Cinacalcet hydrochloride]
viability at 10 µM (SAS; 72 h, average of tests, read-out: survival rate (viability) of cells): 82.4%
viability at 10 µM (SAS; 72 h, summary, tongue cancer, read-out: Inhibitory effect): 77.4%
viability at 10 µM (SAS; 72 hours, test 6-26-10 min, read-out: survival rate (viability) of cells): 45.7%
viability at 10 µM (SAS; 72 hours, test 6-28-10 min, read-out: survival rate (viability) of cells): 88.9%
viability at 10 µM (SAS; 72 hours, test 6-30-10 min, read-out: survival rate (viability) of cells): 96.2%
viability at 10 µM (SAS; 72 hours, test 7-3-10 min, read-out: survival rate (viability) of cells): 98.9%
viability at 10 µM (A375; A-375, 10 μM, 72 hours, test 0602-30 min): 117%
viability at 10 µM (A375; A-375, 10 μM, 72 hours, test 0605-10 min): 95.6%
viability at 10 µM (A375; A-375, 10 μM, 72 hours, test 0607-10 min): 94.4%
viability at 10 µM (A375; A-375, 10 μM, 72 hours, test 0609-10 min): 108%
viability at 10 µM (A375; A-375, 72 h, 10 μM, average of tests): 104%
weight ([1]; Low dose (100 mg/kg/day) intraperitoneally, First measurement, 100 mg/kg/day): 20 g and 16 g and 21 g
weight ([1]; Low dose (100 mg/kg/day) intraperitoneally, Fourth measurement, 100 mg/kg/day): 22 g and 23 g
weight ([1]; Low dose (100 mg/kg/day) intraperitoneally, Second measurement, 100 mg/kg/day): 21 g and 22 g and 19 g
weight ([1]; Low dose (100 mg/kg/day) intraperitoneally, Third measurement, 100 mg/kg/day): 23.5 g and 21 g
health status / death of tested mice during the treatment ([1]; both high and low doses): without death
weight of mice during the experiment ([1]; both low dose and high dose): did not show a significant decrease
weight ([1]; high dose (200 mg/kg/day) intraperitoneally, Fourth measurement, 200 mg/kg/day): 23 g and 20 g
weight ([1]; high dose (200 mg/kg/day) intraperitoneally, Second measurement, 200 mg/kg/day): 18.5 g and 21 g and 19 g
weight ([1]; high dose (200 mg/kg/day) intraperitoneally, Third measurement, 200 mg/kg/day): 19 g and 22 g and 18.5 g
viability at 10 µM (HepG2; HepG2, 10 μM, 72 hours, test 0524-20 min): 106%
viability at 10 µM (HepG2; HepG2, 10 μM, 72 hours, test 0526-20 min): 133%
viability at 10 µM (HepG2; HepG2, 10 μM, 72 hours, test 0529-20 min): 116%
viability at 10 µM (HepG2; HepG2, 10 μM, 72 hours, test 0531-20 min): 89.5%
viability at 10 µM (HepG2; HepG2, 72 h, 10 μM, average of tests): 111%
viability at 10 µM (TSGH; 72 h, average of tests): 59.8%
viability at 10 µM (TSGH; 72 hours, test 0510-10 min): 57.3%
viability at 10 µM (TSGH; 72 hours, test 0512-10 min): 73.2%
viability at 10 µM (TSGH; 72 hours, test 0515-10 min): 74.7%
viability at 10 µM (TSGH; 72 hours, test 0517-10 min): 33.9%
viability at 72 h, 10 µM ([2]; average of tests, read-out: survival rate (viability) of cells): 76.1%
viability at 72 h, 10 µM ([2]; summary, normal pulmonary epithelial cell line, read-out: Inhibitory effect): 76.1%
viability at 72 h, 10 µM ([2]; test 0510-10 min, read-out: survival rate (viability) of cells): 70.5%
viability at 72 h, 10 µM ([2]; test 0512-10 min, read-out: survival rate (viability) of cells): 72.9%
viability at 72 h, 10 µM ([2]; test 0515-10 min, read-out: survival rate (viability) of cells): 72.2%
viability at 72 h, 10 µM ([2]; test 0517-10 min, read-out: survival rate (viability) of cells): 89%
viability at 10 µM (lung cancer cells): 83.1%
viability at 10 µM (BxPC-3; BXPC-3, 10 μM, 72 hours, test 3-4-30 min): 76.2%
viability at 10 µM (BxPC-3; BXPC-3, 10 μM, 72 hours, test 3-7-3-30 min): 64.6%
viability at 10 µM (BxPC-3; BXPC-3, 10 μM, 72 hours, test 3-7-4-30 min): 78.8%
viability at 10 µM (BxPC-3; BXPC-3, 10 μM, 72 hours, test 3-7-7-30 min): 100%
viability at 10 µM (BxPC-3; BXPC-3, 72 h, 10 μM, Average of tests): 79.9%
viability at 10 µM (A549; A549, 10 μM, 72 hours, test 0524-10 min): 87.7%
viability at 10 µM (A549; A549, 10 μM, 72 hours, test 0526-10 min): 103%
viability at 10 µM (A549; A549, 10 μM, 72 hours, test 0529-10 min): 75.5%
viability at 10 µM (A549; A549, 10 μM, 72 hours, test 0531-10 min): 92.6%
viability at 10 µM (A549; A549, 72 h, 10 μM, Average of tests): 89.6%
